Assay results reported in US20130090360A1 (priority 2010, published 2013).
Like-named read-outs stand apart in the source and are kept apart here.

Assays:
[1] = tested on: Pyricularia oryzae; format: in vivo, Pyricularia oryzae on rice plants (variety Tainong 67); details: field, natural infection
[2] = tested on: Pyricuaria oryzae; format: in vivo, Pyricuaria oryzae on rice plants (variety Tainong 67); details: field, natural infection

Structure (SMILES)	Efficacy % 15 days after first application ([1]; application rate 100 g ai/ha)	Efficacy % 22 days after first application ([2]; application rate 100 g ai/ha)	Efficacy % 22 days after first application ([2]; application rate 200 g ai/ha)	Efficacy % 15 days after first application ([1]; application rate 25 g ai/ha)	Efficacy % 15 days after first application ([1]; application rate 50 g ai/ha)	Efficacy % 15 days after first application ([1]; application rate 75 g ai/ha)	Efficacy % 22 days after first application ([2]; application rate 25 g ai/ha)	Efficacy % 22 days after first application ([2]; application rate 50 g ai/ha)	Efficacy % 22 days after first application ([2]; application rate 75 g ai/ha)
Cc1cccc2sc3nncn3c12 [Tricyclazol, tricyclazole]	34.9%	5.6%	0.0%						
Fc1ccc([C@]2(Cn3cncn3)O[C@H]2c2ccccc2Cl)cc1 (racemic) [Epoxiconazole (EPX), epoxiconazole]				17.7%	24.1%	35.1%	1.2%	0.0%	5.6%
